Values of other authors in publication PMC7395068, “The evolution of strategies to minimise the risk of human drug-induced liver injury (DILI) in drug discovery and development” (Archives of Toxicology, 2020).
Like-named read-outs stand apart in the source and are kept apart here.

How the values were obtained:
[1] = cited from earlier work
[2] = system: THLE or HepG2 cells, isolated mitochondria, BSEP; conditions: cited from earlier work
[3] = cited from earlier work; remark: listed apart in the source
[4] = cited from earlier work; remark: listed apart in the source
[5] = system: HepG2 C3A spheroid, BSEP, Glu/Gal in HepG2 cells, bioactivation; conditions: cited from earlier work
[6] = system: THLE-Null and THLE-3A4 cells; conditions: In vitro Assay; ref Gustafsson 2014; cited from earlier work
[7] = system: HepG2 cells, primary human hepatocytes; conditions: cited from earlier work
PHH = conditions: In vitro Assay; ref Proctor 2017; cited from earlier work
hLiMTs = conditions: In vitro Assay; ref Proctor 2017; cited from earlier work
human hepatocytes = conditions: cited from earlier work
[8] = system: primary human hepatocytes, NIH3T3 fibroblasts, BSEP, CYP3A4; conditions: cited from earlier work
[9] = LTKB DILIrank category, ref Chen 2016
[10] = binary DILI call, ref Chen 2016
[11] = FDA drug labelling score, ref Chen 2011
[12] = binary in vivo DILI call given beside the severity category, ref Chen 2016
[13] = human DILI concern category (LTKB DILIrank), ref Chen 2016
[14] = score by FDA drug labelling, scale 1-8, ref Chen 2011
[15] = In vitro Assay, ref Garside 2014
[16] = In vitro Assay, ref Williams 2019

CC(C(=O)O)c1cccc(Oc2ccccc2)c1 (stereo not shown) [fenoprofen]
DILI +VE (5-8), DILI -VE (-4) ([1]; ref Chen 2016): +VE
DILI severity category ([1]; ref Chen 2016): vMost-DILI-Concern
Partition Hybrid HRM Score ([2]; In vitro Assay, ref Aleo 2019): +VE
Ro2 Hybrid HRM Score ([2]; In vitro Assay, ref Aleo 2019): +VE
In vivo DILI ([3]; ref Aleo 2019): +VE
DILI Score (FDA) (1-8) ([4]; ref Chen 2011): 8

Nc1nc(O)c2ncn(COC(CO)CO)c2n1 [ganciclovir]
DILI severity category [1, 9]: Ambiguous DILI-concern
DILI +VE (5-8), DILI -VE (-4) [1, 10]: -VE
DILI Score (FDA) (1-8) [4, 11]: 7

CCOC(=O)C1=C[C@@H](OC(CC)CC)[C@H](NC(C)=O)[C@@H](N)C1 [oseltamivir]
DILI severity category [1, 9]: Ambiguous DILI-concern
DILI +VE (5-8), DILI -VE (-4) [1, 10]: -VE
Partition Hybrid HRM Score, In vitro Assay ([2]; Partition hybrid, ref Aleo 2019): +VE
Ro2 Hybrid HRM Score, In vitro Assay ([2]; Rule of Two hybrid, ref Aleo 2019): -VE
DILI Score (FDA) (1-8) [4, 11]: 3

C[C@]12COC(=O)C[C@@H]1CC[C@@H]1[C@@H]2CC[C@@]2(C)[C@H]1CC[C@]2(C)O [oxandrolone]
DILI +VE (5-8), DILI -VE (-4) [1, 12]: +VE
DILI severity category [1, 13]: vMost-DILI-Concern
DILI Score (FDA) (1-8) [4, 14]: 8

CN(C)[C@@H]1C(O)=C(C(N)=O)C(=O)[C@@]2(O)C(O)=C3C(=O)c4c(O)cccc4[C@@](C)(O)[C@H]3[C@H](O)[C@@H]12 [oxytetracycline]
DILI +VE (5-8), DILI -VE (-4) [1, 12]: -VE
DILI severity category [1, 13]: Ambiguous DILI-concern
DILI Score (FDA) (1-8) [4, 14]: 2

CC(C)(S)[C@@H](N)C(=O)O [penicillamine]
DILI +VE (5-8), DILI -VE (-4) [1, 12]: +VE
DILI severity category [1, 13]: vLess-DILI-Concern
DILI Score (FDA) (1-8) [4, 14]: 3

C[C@]12C=CC(=O)C=C1CC[C@@H]1[C@@H]2[C@@H](O)C[C@@]2(C)[C@H]1CC[C@]2(O)C(=O)CO [prednisolone]
DILI +VE (5-8), DILI -VE (-4) ([1]; in vivo): +VE
DILI severity category ([1]; in vivo): vLess-DILI-Concern
In vivo DILI ([3]; in vivo): -VE
DILI Score (FDA) (1-8) ([4]; in vivo): 3

CC(C(=O)O)c1ccc(C(=O)c2cccs2)cc1 (stereo not shown) [suprofen]
Bayesian Machine Learning ([5]; ref Williams 2019): +VE
In vivo DILI ([3]; ref Garside 2014): +VE
In vivo DILI ([3]; ref Gustafsson 2014): +VE
In vivo DILI ([3]; ref Williams 2019): +VE
THLE-Null [6]: -VE
THLE-Null/3A4 [6]: -VE
Cluster 1-6 +VE Assay [7, 15]: -VE

C[C@H](Cn1cnc2c(N)ncnc21)OCP(=O)(O)O [tenofovir]
DILI +VE (5-8), DILI -VE (-4) [1, 12]: +VE
DILI severity category [1, 13]: vLess-DILI-Concern
DILI Score (FDA) (1-8) [4, 14]: 8

O=C(O)COc1ccc(C(=O)c2cccs2)c(Cl)c1Cl [tienilic acid]
DILI +VE (5-8), DILI -VE (-4) ([1]; ref Chen 2016): +VE
DILI severity category ([1]; ref Chen 2016): vMost-DILI-Concern
PHH ATP <100uM (PHH): -VE
hLiMTs ATP <100uM (hLiMTs): -VE
Bayesian Machine Learning [5, 16]: +VE
In vivo DILI ([3]; […]): +VE
In vivo DILI ([3]; ref Garside 2014): +VE
In vivo DILI ([3]; ref Proctor 2017): +VE
In vivo DILI ([3]; ref Williams 2019): +VE
Cluster 1-6 +VE Assay [7, 15]: +VE

Cc1ccc(C(=O)c2ccc(CC(=O)O)n2C)cc1 [tolmetin]
DILI +VE (5-8), DILI -VE (-4) ([1]; ref Chen 2016): +VE
DILI severity category ([1]; ref Chen 2016): vLess-DILI-Concern
Structural based (HCI) (human hepatocytes; In vitro Assay, ref Xu 2008): +VE
Bayesian Machine Learning [5, 16]: +VE
In vivo DILI ([3]; ref Garside 2014): +VE
In vivo DILI ([3]; ref Gustafsson 2014): +VE
In vivo DILI ([3]; ref Williams 2019): +VE
In vivo DILI ([3]; ref Xu 2008): +VE
THLE-Null [6]: -VE
THLE-Null/3A4 [6]: -VE
Cluster 1-6 +VE Assay [7, 15]: +VE

CN(C)CCOc1ccc(/C(=C(/CCCl)c2ccccc2)c2ccccc2)cc1 [toremifene]
DILI +VE (5-8), DILI -VE (-4) [1, 12]: -VE
DILI severity category [1, 13]: Ambiguous DILI-concern
DILI Score (FDA) (1-8) [4, 14]: 3

CC(=O)CC(c1ccccc1)c1c(O)c2ccccc2oc1=O (stereo not shown) [warfarin]
Cellular toxicity (3T3 cells) [8]: -VE
Combined Assay [8]: -VE
GSH adduct HML [8]: -VE
Hepatocyte cellular toxicity [8]: -VE
MitoTox 3T3 [8]: -VE
TDI CYP3A4 [8]: -VE
hBSEP inhibition [8]: -VE
Structural based (HCI) (human hepatocytes): -VE
Partition Hybrid HRM Score [2]: +VE
Ro2 Hybrid HRM Score [2]: -VE
Bayesian Machine Learning [5]: +VE
Cluster 1-6 +VE Assay [7]: -VE
